According to patent US8110599B2 (priority 2006, dated 2012):
Converted amounts (≈) assume the structure as drawn. Where two headings read alike, the source gives them in different places.

Legend:
[1] = test system: S180 carcinoma
Procedure: S-180 cells were inoculated subcutaneously to mice at the axillary region at 0.5-1×10^6 cells/mouse. […] The drugs were given 6-8 times in total, one day spaced between two administrations for all the experiments. At the end of experiments, the tumors were removed and weighed, and the tumor inhibition ratio (TIR) was calculated. Pharmaceutical efficacy was considered with TIR≧40% and P<0.05, after statistical analysis.
The prepared solution was filtered through 0.45 and 0.22 μm membrane for sterilization, divided into stock aliquots, and stored at 4° C. for future use. The stock aliquot was further diluted with sterilized PBS (pH=7.4) to the required concentration before drug administration.
5-FU, CTX, and carboplatin solutions were freshly prepared in normal saline before use. […] Mice with the same sex were used in any individual experiment.
S180 cell line was from S180 bearing mice, and was intraperitoneally passaged in Kunming mouse.
Carcinoma inoculation and drug treatment: To each mouse, 0.2 ml of the S180 and H22 cell suspensions (2.5×10^6 cells/ml) were subcutaneously injected into the right axillary region (a total of 5×10^5 cells per mouse), respectively. On the second day, the animals were grouped at random and drugs were administered accordingly. […] The drugs were given once every other day with a total of 6-8 treatments.
Determination of tumor weight and calculation of TIR (tumor inhibition ratio), were as follows. Body weight was recorded on the day after the last drug administration and animals were then sacrificed. The carcinoma was removed and weighed, and TIR (%) was calculated according the following formula: […]

[2] = Solubility and solution stability; type: physicochemical; details: pure AMP, white powder
[3] = test system: human leukemia K562 cells; experiment: MTT assay, in vitro killing of K562 cells; type: cell-based; details: for IC50: Homo sapiens
Procedure: (1) AMP Na: An AMP-Na solution was prepared according to the method of Example 1 at an AMP:Na2CO3 ratio (w/w) of 5:3, which was then diluted 10 times with PBS (pH 6.5) to obtain the AMP-Na stock solution. The stock solution was further diluted by PBS (pH 7.4) to the concentration for cell exposure.
All the drug solutions described above were freshly prepared before use, and the final concentration for cell exposure was 100, 50, 25, 12.5, and 6.25 μg/ml, respectively.
K562 cells were cultured in RPMI1640 culture media supplemented with 10% calf serum, 100 U/ml of penicillin and streptomycin.
1. K562 cells at their log growth period were collected and centrifuged at 1,000 rpm for 5 minutes. The supernatant was discarded, and the cell density was adjusted to 1×10^5 cells/ml with RPMI 1640 cell culture media.
2. Ten microliter of the drug solution at various concentrations and 90 μl of the cell suspension or cell culture media were added to each well of the 96-well plate, followed by incubation in a CO2 incubator.
3. Cells were cultured for another 48-hour or 72-hour. Ten microliter of the MTT solution was added to per well 4 hours before the end of the experiment. Then, the solution was discarded and 100 μl of 10% SDS was added for termination of the experiment.
4. The absorbance of the solution was measured at 570 nm using a plate reader after being shaken on a shaker for 10 minutes. Results were printed out and recorded.
The inhibition ratio (%) was calculated from the following equation: […]
IC50 was calculated by linear regression of drug concentration v.s. cell inhibition ratio.

[4] = in vivo; details: both, Kunming, mouse
Procedure: Major organs of dead animals were removed, fixed, and subject to pathological study. […] Normal saline (36.25 ml) and 37% HCl (0.75 ml) were added to obtained the AMP stock solution with a concentration of 50 mg/ml and pH of 7.3 (concentrations of solvents including PEG 400, propanediol, and ethanol were 0.03, 0.0445, and 0.015 g/ml, respectively). […] The stock solution was further diluted in normal saline to the required concentration, and was i.v. or i.p. administered to mice at 0.2 ml/10 g bodyweight.
Both male and female Kuming mice of SPF grade, weighing 18-22 g, were used in the experiment. […] All data were analyzed by DAS software.

[5] = carboplatin experiment, carboplatin 25 mg/kg, ip alone

In the case of `O=c1[nH]cc(F)c(=O)[nH]1` [5-FU, reference compound], the “TIR (%)” value ([1]; 5-FU experiment, 5-FU 20 mg/kg, ip alone) is reported as 45.55% and the “Tumor weight (g) (X ± SD)” value ([1]; 5-FU experiment, 5-FU 20 mg/kg, ip alone, 11 days before sacrifice) is reported as 1.08 ± 0.60 g.

With `O=C1c2c(O)cc(O)cc2O[C@H](c2cc(O)c(O)c(O)c2)[C@H]1O` [AMP-DMSO, AMPelopsin, reference compound] the Solubility in water [2] was “does not dissolve”, the IC50 ([3]; K562, 72 h) was 4.09 µg/mL (≈ 12.8 µM) and the IC50 ([3]; K562, after drug exposure for 48 h and 72 h) was 32.3 µg/mL (≈ 101 µM). For the same compound, the IC50 ([3]; K562, cell treatment for 48 h) was 32.3 µg/mL (≈ 101 µM), the LD50 at 7 day [4] was 1000 mg/kg and the LD50 at 7 day ([4]; iv) was 1000 mg/kg.

In the case of `O.O.O.O.O.O=C1c2c(O)cc([O-])cc2OC(c2cc([O-])c(O)c([O-])c2)C1[O-].[Na+].[Na+].[Na+].[Na+]` (stereo not shown) [AMP-Na, pentahydrate of the AMPelopsin unsaturated sodium salt], the “IC50 in killing K562 cells” value ([3]; 48 h) is reported as 29.56 µg/mL, the “Killing effects towards K562 cells, AMP-Na compared with AMP-DMSO” value ([3]; 48 h and 72 h) is reported as “no significant difference” and the “IC50 in killing K562 cells” value ([3]; 72 h) is reported as 4.23 µg/mL. For the same compound, the “IC50 in killing K562 cells” value ([3]; after drug exposure for 48 h and 72 h) was 29.56 µg/mL, the “TIR (%)” value ([1]; 5-FU experiment, AMP-Na 50 mg/kg, ip, alone or jointly with 5-FU) was 4.43% and the “Tumor weight (g) (X ± SD)” value ([1]; 5-FU experiment, AMP-Na 50 mg/kg, ip, alone or jointly with 5-FU, 11 days) was 1.89 ± 0.75 g. For the same compound, the “TIR (%)” value ([1]; 5-FU experiment, AMP-Na 75 mg/kg, ip, alone or jointly with 5-FU) was 31.28%, the “Tumor weight (g) (X ± SD)” value ([1]; 5-FU experiment, AMP-Na 75 mg/kg, ip, alone or jointly with 5-FU, 11 days) was 1.36 ± 0.69 g and the “Tumor weight (g) (X ± SD)” value ([1]; 5-FU experiment, AMP-Na 112 mg/kg, ip, alone or jointly with 5-FU, 11 days) was 1.32 ± 0.78 g. The “TIR (%)” value ([1]; 5-FU experiment, AMP-Na 112 mg/kg, ip, alone or jointly with 5-FU, sodium salt) was 33.49%, the “TIR (%)” value ([1]; 5-FU experiment, AMP-Na 167 mg/kg, ip, alone or jointly with 5-FU) was 4.45% and the “Tumor weight (g) (X ± SD)” value ([1]; 5-FU experiment, AMP-Na 167 mg/kg, ip, alone or jointly with 5-FU, 11 days) was 1.89 ± 0.59 g. For the same compound, the “T1R (%)” value ([1]; CTX experiment, AMP-Na 50 mg/kg, ip, alone or jointly with CTX) was 7.66%, the “Tumor weight (g) (X ± SD)” value ([1]; CTX experiment, AMP-Na 50 mg/kg, ip, alone or jointly with CTX, 12 days) was 1.66 ± 0.84 g and the “T1R (%)” value ([1]; CTX experiment, AMP-Na 75 mg/kg, ip, alone or jointly with CTX) was 6.84%. The “Tumor weight (g) (X ± SD)” value ([1]; CTX experiment, AMP-Na 75 mg/kg, ip, alone or jointly with CTX, 12 days) was 1.67 ± 1.03 g, the “T1R (%)” value ([1]; CTX experiment, AMP-Na 112 mg/kg, ip, alone or jointly with CTX) was −3.86% and the “Tumor weight (g) (X ± SD)” value ([1]; CTX experiment, AMP-Na 112 mg/kg, ip, alone or jointly with CTX, 12 days) was 1.86 ± 1.21 g. For the same compound, the “T1R (%)” value ([1]; CTX experiment, AMP-Na 167 mg/kg, ip, alone or jointly with CTX) was −16.25%, the “Tumor weight (g) (X ± SD)” value ([1]; CTX experiment, AMP-Na 167 mg/kg, ip, alone or jointly with CTX, 12 days) was 2.08 ± 1.07 g and the “TIR (%)” value ([1]; carboplatin experiment, AMP-Na 50 mg/kg, ip, alone or jointly with carboplatin) was 23.22%. The “Tumor weight (g) (X ± SD)” value ([1]; carboplatin experiment, AMP-Na 50 mg/kg, ip, alone or jointly with carboplatin, 10 days) was 1.12 ± 0.30 g, the “TIR (%)” value ([1]; carboplatin experiment, AMP-Na 75 mg/kg, ip, alone or jointly with carboplatin) was 3.99% and the “Tumor weight (g) (X ± SD)” value ([1]; carboplatin experiment, AMP-Na 75 mg/kg, ip, alone or jointly with carboplatin, 10 days) was 1.40 ± 0.58 g. The “TIR (%)” value ([1]; carboplatin experiment, AMP-Na 112 mg/kg, ip, alone or jointly with carboplatin) was 13.87%, the “Tumor weight (g) (X ± SD)” value ([1]; carboplatin experiment, AMP-Na 112 mg/kg, ip, alone or jointly with carboplatin, 10 days) was 1.26 ± 0.69 g and the “TIR (%)” value ([1]; carboplatin experiment, AMP-Na 167 mg/kg, ip, alone or jointly with carboplatin) was −7.47%. The “Tumor weight (g) (X ± SD)” value ([1]; carboplatin experiment, AMP-Na 167 mg/kg, ip, alone or jointly with carboplatin, 10 days) was 1.57 ± 0.71 g and the “Tumor suppression, AMP-Na alone” value ([1]; single administration, S-180 bearing mice) was “no or weak tumor suppression”.

For `N.N.O=C([O-])C1(C(=O)[O-])CCC1.[Pt+2]` [carboplatin, reference compound], the “Body weight (g) after” value [1, 5] was 18.57/25.75 g, the “TIR (%)” value [1, 5] was 49.52% and the “Tumor weight (g) (X ± SD)” value ([1]; carboplatin experiment, carboplatin 25 mg/kg, ip alone, 10 days before sacrifice) was 0.74 ± 0.28 g.
